Source: patent US9290451B2 (Hoffmann-La Roche Inc., priority 2011, dated 2016)
Like-named read-outs stand apart in the source and are kept apart here.

Legend:
human CB2 receptors = human CB2 receptors (Homo sapiens (Human), UniProt P34972); test: cAMP assay, CHO cells expressing human CB2 receptors; format: cell-based
Procedure, shortened: (§1)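 Read-out is TR-FRET (excitation 355 nm, emission 730/645 nm) after cell lysis, with cAMP content taken from a standard curve and EC50 calculated. Cells were pretreated with 1 mM IBMX in Krebs Ringer bicarbonate buffer, then incubated with compounds for 30 min at 30 °C.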

human CB1 receptors = human CB1 receptors (Homo sapiens (Human), UniProt P21554); test: cAMP assay, CHO cells expressing human CB1 receptors; format: cell-based
Chain of human CB1 receptors (P21554 whole entry): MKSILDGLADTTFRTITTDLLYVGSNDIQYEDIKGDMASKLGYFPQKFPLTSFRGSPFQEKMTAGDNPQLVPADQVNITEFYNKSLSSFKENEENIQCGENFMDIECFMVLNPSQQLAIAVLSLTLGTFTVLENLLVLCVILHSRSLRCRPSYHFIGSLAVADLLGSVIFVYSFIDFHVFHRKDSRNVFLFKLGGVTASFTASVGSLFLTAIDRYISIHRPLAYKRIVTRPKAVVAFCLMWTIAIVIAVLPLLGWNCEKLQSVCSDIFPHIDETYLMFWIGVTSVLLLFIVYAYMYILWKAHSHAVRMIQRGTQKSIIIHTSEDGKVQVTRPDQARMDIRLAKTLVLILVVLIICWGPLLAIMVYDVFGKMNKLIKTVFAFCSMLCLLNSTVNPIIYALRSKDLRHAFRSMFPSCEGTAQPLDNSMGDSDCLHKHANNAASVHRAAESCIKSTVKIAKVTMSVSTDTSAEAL
Procedure, shortened: as §1

[1] = CHO cells expressing human CB2, cAMP, read-out: human CB2 EC50
[2] = CHO cells expressing human CB1, cAMP, read-out: human CB1 EC50

Chain of human CB2 receptors (P34972 whole entry): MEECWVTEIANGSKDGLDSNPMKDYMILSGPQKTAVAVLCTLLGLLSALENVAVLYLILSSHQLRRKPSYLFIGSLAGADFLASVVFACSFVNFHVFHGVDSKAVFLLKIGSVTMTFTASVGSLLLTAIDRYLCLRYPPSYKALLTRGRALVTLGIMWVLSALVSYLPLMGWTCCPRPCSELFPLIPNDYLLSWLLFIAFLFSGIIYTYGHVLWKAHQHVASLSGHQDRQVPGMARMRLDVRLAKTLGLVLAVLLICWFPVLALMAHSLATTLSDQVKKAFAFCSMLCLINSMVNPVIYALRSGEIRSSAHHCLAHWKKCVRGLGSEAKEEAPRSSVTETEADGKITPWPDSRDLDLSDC

How did the EC50 (human CB2 receptors; [1]) turn out when Cc1nc([C@H](CC(C)C)NC(=O)c2cccc(S(=O)(=O)CC(C)C)n2)no1 [Example 335, 6-(2-Methyl-propane-1-sulfonyl)-pyridine-2-carboxylic acid [(S)-3-methyl-1-(5-methyl-[1,2,4]oxadiazol-3-yl)-butyl]-amide] was run?
Its EC50 is 962 nM.

What about the EC50 (human CB1 receptors; [2]) of the same compound?
Its EC50 is > 10000 nM.

Which results are given for CC(C)CC(C)(NC(=O)c1ccc(C2CC2)c(OCC2CC2)n1)C(N)=O (stereo not shown) [Example 178, N-(1-Amino-2,4-dimethyl-1-oxopentan-2-yl)-5-cyclopropyl-6-(cyclopropylmethoxy)picolinamide]?
EC50 (human CB2 receptors; [1]): 42.2 nM; EC50 (human CB1 receptors; [2]): > 10000 nM

How did the EC50 (human CB2 receptors; [1]) turn out when Cc1nc(C(C)(C)NC(=O)c2ccc(N3CCCC3)c(OCC3CC3)n2)no1 [Example 33, 6-Cyclopropylmethoxy-5-pyrrolidin-1-yl-pyridine-2-carboxylic acid [1-methyl-1-(5-methyl-[1,2,4]oxadiazol-3-yl)-ethyl]-amide] was run?
The EC50 was 23.1 nM.

What about the EC50 (human CB1 receptors; [2]) of the same compound?
Its EC50 is > 10000 nM.

With CNC(=O)[C@@H](NC(=O)c1ccc(C2CC2)c(OCC2CCOCC2)n1)C(C)(C)C [Example 195, (S)-5-Cyclopropyl-N-(3,3-dimethyl-1-(methylamino)-1-oxobutan-2-yl)-6-((tetrahydro-2H-pyran-4-yl)methoxy)picolinamide] as the compound, how does the EC50 (human CB2 receptors; [1]) read?
The EC50 was 1.4 nM.

And the EC50 (human CB1 receptors; [2])?
Its EC50 is 206 nM.

Which EC50 (human CB2 receptors; [1]) does the source give for Cc1nc([C@@H](CC(C)C)NC(=O)c2ccc(C3CC3)c(OCC3CC3)n2)no1 [Example 243, 5-Cyclopropyl-6-cyclopropylmethoxy-pyridine-2-carboxylic acid [(−)-3-methyl-1-(5-methyl-[1,2,4]oxadiazol-3-yl)-butyl]-amide] here?
The EC50 was 22.1 nM.

And the EC50 (human CB1 receptors; [2])?
The EC50 was 830 nM.

Which EC50 (human CB2 receptors; [1]) does the source give for Cc1nc(C(C)(C)NC(=O)c2ccc(C3CC3)c(OCc3ccccn3)n2)no1 [Example 199, 5-Cyclopropyl-N-(2-(5-methyl-1,2,4-oxadiazol-3-yl)propan-2-yl)-6-(pyridin-2-ylmethoxy)picolinamide] here?
Its EC50 is 151 nM.

What about the EC50 (human CB1 receptors; [2]) of the same compound?
The EC50 was > 10000 nM.

Which results are given for O=C(NC1CCCCC1O)c1cccc(C2CCCCC2)n1 (stereo not shown) [Example 84, 6-Cyclohexyl-pyridine-2-carboxylic acid (2-hydroxy-cyclohexyl)-amide]?
EC50 (human CB2 receptors; [1]): 292 nM; EC50 (human CB1 receptors; [2]): > 10000 nM

CC[C@H](NC(=O)c1ccc(C2CC2)c(OCC2CC2)n1)c1noc(C)n1 [Example 244, 5-Cyclopropyl-6-cyclopropylmethoxy-pyridine-2-carboxylic acid [(+)-1-(5-methyl-[1,2,4]oxadiazol-3-yl)-propyl]-amide] was tested. Which EC50 (human CB2 receptors; [1]) did it give?
Its EC50 is 14.1 nM.

What about the EC50 (human CB1 receptors; [2]) of the same compound?
Its EC50 is > 10000 nM.

Which EC50 (human CB2 receptors; [1]) does the source give for Cc1ccc(C(=O)N[C@@H](CC2CC2)C(N)=O)nc1OCC1CC1 [Example 130, 6-Cyclopropylmethoxy-5-methyl-pyridine-2-carboxylic acid ((S)-1-carbamoyl-2-cyclopropyl-ethyl)-amide] here?
The EC50 was 50 nM.

What about the EC50 (human CB1 receptors; [2]) of the same compound?
The EC50 was > 10000 nM.

Which EC50 (human CB2 receptors; [1]) does the source give for CC(C)[C@](C)(CO)NC(=O)c1ccc(C2CC2)c(OCC2CC2)n1 [Example 191, 5-Cyclopropyl-6-cyclopropylmethoxy-pyridine-2-carboxylic acid ((R)-1-hydroxymethyl-1,2-dimethyl-propyl)-amide] here?
The EC50 was 57.7 nM.

What about the EC50 (human CB1 receptors; [2]) of the same compound?
Its EC50 is > 10000 nM.

For CC(C)CC(C)(CO)NC(=O)c1ccc(N2CC(F)(F)C2)c(OCC2CC2)n1 (stereo not shown) [Example 273, 6-Cyclopropylmethoxy-5-(3,3-difluoro-azetidin-1-yl)-pyridine-2-carboxylic acid (1-hydroxymethyl-1,3-dimethyl-butyl)-amide], which EC50 (human CB2 receptors) is on record?
The EC50 was 5.4 nM.

And the EC50 (human CB1 receptors)?
Its EC50 is 1250 nM.

How did the EC50 (human CB2 receptors; [1]) turn out when CCC(CC)(NC(=O)c1cccc(OCC(F)(F)C(F)(F)F)n1)C(=O)NC [Example 297, 6-(2,2,3,3,3-Pentafluoro-propoxy)-pyridine-2-carboxylic acid (1-ethyl-1-methylcarbamoyl-propyl)-amide] was run?
The EC50 was 962 nM.

What about the EC50 (human CB1 receptors; [2]) of the same compound?
Its EC50 is > 10000 nM.

How did the EC50 (human CB2 receptors; [1]) turn out when Cc1nc(C(NC(=O)c2ccc(C3CC3)c(OCC3CC3)n2)C2CC2)no1 (stereo not shown) [Example 190, 5-Cyclopropyl-N-(cyclopropyl(5-methyl-1,2,4-oxadiazol-3-yl)methyl)-6-(cyclopropylmethoxy)picolinamide] was run?
The EC50 was 20.4 nM.

And the EC50 (human CB1 receptors; [2])?
Its EC50 is > 10000 nM.

Which results are given for CC(C)C[C@H](C#N)NC(=O)c1ccc(C2CC2)c(OCC2CC2)n1 [Example 247, 5-Cyclopropyl-6-cyclopropylmethoxy-pyridine-2-carboxylic acid ((−)-1-cyano-3-methyl-butyl)-amide]?
EC50 (human CB2 receptors; [1]): 5.6 nM; EC50 (human CB1 receptors; [2]): > 10000 nM

What does the source list for CC(C)CS(=O)(=O)c1nc(C(=O)N[C@@H](c2cccnc2)C(F)(F)F)ccc1C1CC1 [Example 365, 5-Cyclopropyl-6-(2-methyl-propane-1-sulfonyl)-pyridine-2-carboxylic acid ((S)-2,2,2-trifluoro-1-pyridin-3-yl-ethyl)-amide]?
EC50 (human CB2 receptors; [1]): 13.9 nM; EC50 (human CB1 receptors; [2]): > 10000 nM

For COCCOc1nc(C(=O)NC(C)(C)c2noc(C)n2)ccc1C1CC1 [Example 153, 5-Cyclopropyl-6-(2-methoxy-ethoxy)-pyridine-2-carboxylic acid [1-methyl-1-(5-methyl-[1,2,4]oxadiazol-3-yl)-ethyl]-amide], which EC50 (human CB2 receptors; [1]) is on record?
The EC50 was 293 nM.

And the EC50 (human CB1 receptors; [2])?
Its EC50 is > 10000 nM.

For CC(C)CC(NC(=O)c1ccc(N2CC(F)(F)C2)c(OCC2CC2)n1)c1ccccn1 (stereo not shown) [Example 315, 6-Cyclopropylmethoxy-5-(3,3-difluoro-azetidin-1-yl)-pyridine-2-carboxylic acid (3-methyl-1-pyridin-2-yl-butyl)-amide], which EC50 (human CB2 receptors; [1]) is on record?
Its EC50 is 191 nM.

What about the EC50 (human CB1 receptors; [2]) of the same compound?
Its EC50 is 2320 nM.

Which EC50 (human CB2 receptors; [1]) does the source give for O=C(NN1CCCOC1=O)c1ccc(C2CC2)c(OCC2CC2)n1 [Example 371, 5-Cyclopropyl-6-cyclopropylmethoxy-pyridine-2-carboxylic acid (2-oxo-[1,3]oxazinan-3-yl)-amide] here?
The EC50 was 436 nM.

And the EC50 (human CB1 receptors; [2])?
Its EC50 is > 10000 nM.

What does the source list for CC(C)(NC(=O)c1cccc(-c2cccc(Cl)c2)n1)c1ncon1 [Example 72, 6-(3-Chloro-phenyl)-pyridine-2-carboxylic acid (1-methyl-1-[1,2,4]oxadiazol-3-yl-ethyl)-amide]?
EC50 (human CB2 receptors; [1]): 32.8 nM; EC50 (human CB1 receptors; [2]): > 10000 nM

With CNC(=O)[C@H](CC(C)C)NC(=O)c1ccc(C2CC2)c(OCC2CC2)n1 [Example 181, (S)-5-cyclopropyl-6-(cyclopropylmethoxy)-N-(4-methyl-1-(methylamino)-1-oxopentan-2-yl)picolinamide] as the compound, how does the EC50 (human CB2 receptors; [1]) read?
Its EC50 is 1.3 nM.

What about the EC50 (human CB1 receptors; [2]) of the same compound?
The EC50 was 231 nM.

CC(C)C[C@H](NC(=O)c1ccc(C2CC2)c(OCC2CC2)n1)C(=O)OC(C)(C)C [Example 366, (S)-2-[(5-Cyclopropyl-6-cyclopropylmethoxy-pyridine-2-carbonyl)-amino]-4-methyl-pentanoic acid tert-butyl ester] was tested. Which EC50 (human CB2 receptors; [1]) did it give?
The EC50 was 26.4 nM.

What about the EC50 (human CB1 receptors; [2]) of the same compound?
The EC50 was > 10000 nM.

For O=C(NC1CCCCC1CO)c1cccc(C2CCCCC2)n1 (stereo not shown) [Example 122, 6-Cyclohexyl-pyridine-2-carboxylic acid (2-hydroxymethyl-cyclohexyl)-amide], which EC50 (human CB2 receptors; [1]) is on record?
Its EC50 is 158 nM.

What about the EC50 (human CB1 receptors; [2]) of the same compound?
Its EC50 is > 10000 nM.

Which results are given for NC(=O)[C@H](CC1CC1)NC(=O)c1ccc(C2CC2)c(-c2cccc(Cl)c2)n1 [Example 97, 6-(3-Chloro-phenyl)-5-cyclopropyl-pyridine-2-carboxylic acid ((S)-1-carbamoyl-2-cyclopropyl-ethyl)-amide]?
EC50 (human CB2 receptors; [1]): 508 nM; EC50 (human CB1 receptors; [2]): > 10000 nM

Which EC50 (human CB2 receptors; [1]) does the source give for O=C(NNC1CCS(=O)(=O)C1)c1ccc(N2CC(F)(F)C2)c(OCC2CC2)n1 (stereo not shown) [Example 293, 6-Cyclopropylmethoxy-5-(3,3-difluoro-azetidin-1-yl)-pyridine-2-carboxylic acid N′-(1,1-dioxo-tetrahydro-1λ^6-thiophen-3-yl)-hydrazide] here?
The EC50 was 790 nM.

And the EC50 (human CB1 receptors; [2])?
Its EC50 is > 10000 nM.

Which results are given for Cc1cc(C(C)(C)NC(=O)c2cccc(-c3cccc(Cl)c3)n2)on1 [Example 28, 6-(3-Chloro-phenyl)-pyridine-2-carboxylic acid [1-methyl-1-(3-methyl-isoxazol-5-yl)-ethyl]-amide]?
EC50 (human CB2 receptors; [1]): 564 nM; EC50 (human CB1 receptors; [2]): > 10000 nM

Which results are given for CNC(=O)[C@H](CC(C)(C)C)NC(=O)c1ccc(C(F)(F)F)c(OCC2CC2)n1 [Example 228, 6-Cyclopropylmethoxy-5-trifluoromethyl-pyridine-2-carboxylic acid ((S)-3,3-dimethyl-1-methylcarbamoyl-butyl)-amide]?
EC50 (human CB2 receptors; [1]): 16.8 nM; EC50 (human CB1 receptors; [2]): > 10000 nM

Which results are given for O=C(NC1CCCCC1O)c1ccc(N2CC(F)(F)C2)c(OCC2CC2)n1 (stereo not shown) [Example 137, 6-Cyclopropylmethoxy-5-(3,3-difluoro-azetidin-1-yl)-pyridine-2-carboxylic acid (2-hydroxy-cyclohexyl)-amide]?
EC50 (human CB2 receptors; [1]): 211 nM; EC50 (human CB1 receptors; [2]): > 10000 nM

How did the EC50 (human CB2 receptors; [1]) turn out when CCC(CC)(NC(=O)c1ccc(N2CC(F)(F)C2=O)c(OCC2CC2)n1)C(=O)OC [Example 269, 2-{[6-Cyclopropylmethoxy-5-(3,3-difluoro-2-oxo-azetidin-1-yl)-pyridine-2-carbonyl]-amino}-2-ethyl-butyric acid methyl ester] was run?
Its EC50 is 47.3 nM.

And the EC50 (human CB1 receptors; [2])?
Its EC50 is > 10000 nM.

Cc1nc(C2(NC(=O)c3ccc(C4CC4)c(OCc4ccccn4)n3)CCC2)no1 [Example 189, 5-Cyclopropyl-N-(1-(5-methyl-1,2,4-oxadiazol-3-yl)cyclobutyl)-6-(pyridin-2-ylmethoxy)picolinamide] was tested. Which EC50 (human CB2 receptors; [1]) did it give?
The EC50 was 381 nM.

What about the EC50 (human CB1 receptors; [2]) of the same compound?
Its EC50 is > 10000 nM.

What does the source list for CCC(CC)(NC(=O)c1ccc(C2CC2)c(OCC2CC2)n1)C(=O)N1CC(F)(F)C1 [Example 287, 5-Cyclopropyl-6-cyclopropylmethoxy-pyridine-2-carboxylic acid [1-(3,3-difluoro-azetidine-1-carbonyl)-1-ethyl-propyl]-amide]?
EC50 (human CB2 receptors; [1]): 3.6 nM; EC50 (human CB1 receptors; [2]): > 10000 nM

How did the EC50 (human CB2 receptors; [1]) turn out when CCC(CC)(NC(=O)c1ccc(C2CC2)c(OCC2CC2)n1)C(=O)NCC1CC1 [Example 284, 5-Cyclopropyl-6-cyclopropylmethoxy-pyridine-2-carboxylic acid [1-(cyclopropylmethyl-carbamoyl)-1-ethyl-propyl]-amide] was run?
Its EC50 is 27 nM.

What about the EC50 (human CB1 receptors; [2]) of the same compound?
Its EC50 is > 10000 nM.

Which results are given for CC(C)C[C@H](NC(=O)c1ccc(Cl)c(-c2cccc(Cl)c2)n1)C(N)=O [Example 105, 5-Chloro-6-(3-chloro-phenyl)-pyridine-2-carboxylic acid ((S)-1-carbamoyl-3-methyl-butyl)-amide]?
EC50 (human CB2 receptors; [1]): 208 nM; EC50 (human CB1 receptors; [2]): > 10000 nM
